Earlier results in PMC7862507, “Adrenomedullin for steroid-resistant ulcerative colitis: a randomized, double-blind, placebo-controlled phase-2a clinical trial” (Journal of Gastroenterology, 2020).

System: steroid-resistant UC
Settings: 9 ng/kg/min of AM; real dose might have been higher (1.4-fold dose of bulk powder used); cited from earlier work
Text: A high rate of the placebo effect has been reported in a previous trial for UC [1–3]. High response rates in the placebo group have occasionally obstructed the successful accomplishment of clinical trials for active UC [19]. In this trial, we were concerned about the major impact from the placebo effect because attending patients received hospitalization and bed rest for 2 weeks. Figure 2 illustrates the changes in clinical indexes and fecal markers of each patient at 2 weeks.

CC[C@H](C)[C@H](NC(=O)[C@H](CCC(N)=O)NC(=O)[C@H](Cc1c[nH]cn1)NC(=O)[C@H](C)NC(=O)[C@H](CC(C)C)NC(=O)[C@H](CCCCN)NC(=O)[C@H](CCC(N)=O)NC(=O)[C@@H](NC(=O)[C@@H](NC(=O)[C@@H]1CSSC[C@H](NC(=O)CNC(=O)[C@H](Cc2ccccc2)NC(=O)[C@H](CO)NC(=O)[C@H](CCCNC(=N)N)NC(=O)[C@H](CC(C)C)NC(=O)CNC(=O)[C@H](CCC(N)=O)NC(=O)[C@H](Cc2ccccc2)NC(=O)[C@H](CC(N)=O)NC(=O)[C@H](CC(N)=O)NC(=O)[C@H](CCSC)NC(=O)[C@H](CO)NC(=O)[C@H](CCC(N)=O)NC(=O)[C@H](CCCNC(=N)N)NC(=O)[C@@H](N)Cc2ccc(O)cc2)C(=O)N[C@@H](CCCNC(=N)N)C(=O)N[C@@H](Cc2ccccc2)C(=O)NCC(=O)N[C@@H]([C@@H](C)O)C(=O)N1)[C@@H](C)O)C(C)C)C(=O)N[C@@H](Cc1ccc(O)cc1)C(=O)N[C@@H](CCC(N)=O)C(=O)N[C@@H](Cc1ccccc1)C(=O)N[C@H](C(=O)N[C@@H](CC(=O)O)C(=O)N[C@@H](CCCCN)C(=O)N[C@@H](CC(=O)O)C(=O)N[C@@H](CCCCN)C(=O)N[C@@H](CC(=O)O)C(=O)N[C@@H](CC(N)=O)C(=O)N[C@H](C(=O)N[C@@H](C)C(=O)N1CCC[C@H]1C(=O)N[C@@H](CCCNC(=N)N)C(=O)N[C@@H](CO)C(=O)N[C@@H](CCCCN)C(=O)N[C@H](C(=O)N[C@@H](CO)C(=O)N1CCC[C@H]1C(=O)N[C@@H](CCC(N)=O)C(=O)NCC(=O)N[C@@H](Cc1ccc(O)cc1)C(N)=O)[C@@H](C)CC)C(C)C)[C@@H](C)O [Adrenomedullin]
improvement in steroid-resistant UC: significant improvement
